Results on 4 compounds are retold here after publication PMC6982718, “Comparative Study on Pharmacokinetics of Four Active Compounds in Rat Plasma after Oral Administration of Raw and Wine Processed Chuanxiong Rhizoma” (Molecules, 2019).

As a reminder, the AUC(0-inf) is the area under the concentration-time curve extrapolated to infinity. Usually AUC(0-t) stands for exposure summed from dosing to a finite time, without extrapolation to infinity. Usually Cmax stands for the highest concentration seen after dosing. One may read the MRT as the average time that molecules of a dose stay in the body. As a reminder, the Tmax is the time at which the peak concentration occurs. Usually half-life stands for the time needed for the level to fall by half in the phase considered.

Data set [1] is described as follows: Pharmacokinetic study in rat plasma after oral administration of RCR and WCR oral liquid medicine. It counts as in vivo, Sprague-Dawley rats. The following applies: n = 6, mean ± SD; for AUC(0-inf) / AUC(0-t) / Cmax / MRT / Tmax / half-life: male, Sprague-Dawley, rat, plasma, po, 24.01 g/kg. As for the experimental part:
RCR (300 g) and WCR (300 g) were weighed and soaked in water (6:1, v/w) for 20 min respectively, then refluxed for 30 min and extracted twice. Finally, the extracts of RCR and WCR were filtered, combined, and concentrated to 1.20 g/mL respectively. The concentrated extracts were stored in a refrigerator at 4 °C before use.
Male adult Sprague-Dawley rats (220–250 g) were obtained from the Laboratory Animal Center of Shanxi Medical University (Shanxi, China). The rats were fed in an air-conditioned animal center with a natural light-dark cycle for a week, the temperature was maintained at 22–26 °C and the relative humidity was maintained at 60 ± 10%. All procedures involving the animal were in accordance with the Regulations of Experimental Animal Administration issued by the State Committee of Science and Technology of People’s Republic of China. It is worth noting that all rats were fasted with free access to water for 12 h prior to the experiment.
The collected plasma samples (100 µL) spiked with IS (10 µL) and methanol (10 µL) were vortex-mixed for 5 min. Subsequently, methanol of 300 µL was added for protein precipitation. The mixtures were vortexed for 5 min and then centrifuged at 13,000 rpm for 20 min. Finally, the supernatant was transferred to another clean centrifuge tube and centrifuged again in the same manner. The supernatant of 5 µL was injected into the UHPLC-Q-Exactive-Orbitrap/MS system for analysis.
Twelve rats were randomly divided into two groups (n = 6 per group), an orally administered liquid medicine of RCR and WCR respectively at the same dose of 24.01 g/kg. The blood samples (0.3 mL) from the suborbital vein of each rat were collected in a 1.5 mL heparinized centrifuge tube before dosing and at 0.033, 0.083, 0.16, 0.25, 0.5, 1, 2, 4, 8, 11, 24, 48 h after administration. The blood samples were immediately centrifuged at 13,000 rpm for 10 min and the plasma separated out were transferred to clean centrifuge tubes and stored at −20 °C until analysis.
The pharmacokinetic parameters of the analytes were evaluated using Phoenix WinNonlin software (version 6.0, Pharsight Corporation, CA, USA). The mean plasma concentration-time curves were presented using Graphpad Prism (version 6.0, Graghpad Software, San Diego, CA, USA).

The format of data set [2] is in vitro ADME, rat. Conditions: low QC (7.08/5.22/6.55/6.68 ng/mL), n = 6. As for the experimental part:
The quality control (QC) samples were prepared by the same procedure described above. Furthermore, low, medium, high concentrations of QC samples of each component were 7.08, 141.50, 1132 ng/mL for butylidenephthalide; 5.22, 104.40, 835.20 ng/mL for ligustilide; 6.55, 131, 1048 ng/mL for senkyunolide A and 6.68, 667.50, 10,680 ng/mL for ferulic acid, respectively.
The stability study of biological samples containing short-term, long-term, freeze-thaw and post-preparation stability could evaluate the influence of sample handling environment and sample storage environment on active component content. Six replicates of QC samples at three concentration levels were analyzed for all stability studies. Short-term stability was evaluated by keeping all QC samples at room temperature for 4 h before processing. Long-term stability was evaluated after all QC samples were stored at −20 °C for 60 days. Freeze-thaw stability of QC samples of each concentration was evaluated after three freeze (−20 °C)-thaw (room temperature) cycles. Post-preparation stability was to observe the stability of the extracted QC samples after waiting for 24 h in the autosampler at 4 °C. The concentration of each QC sample was calculated by the standard curve prepared freshly on the same day. The samples were considered stable when RSD of QC samples at three concentration levels was within ±15%.

`CCC/C=C1\OC(=O)C2=C1CCC=C2` [Ligustilide, ligustilide]: in data set [1] (oral RCR 24.01 g/kg), the AUC(0-inf) was found to be 4110 ± 285 ng·h/mL, the AUC(0-t) was 4080 ± 201 ng·h/mL, the Cmax is 289 ± 8.1 ng/mL and the MRT worked out at 13.5 ± 1.74 h. In data set [1] (oral RCR 24.01 g/kg), the Tmax is 0.22 ± 0.05 h, the half-life is 8.5 ± 1.41 h, the Cl is listed as 128.76 ± 19.21 mL/h and the Vd was determined as 1579.29 ± 363.96 mL. Moreover, in data set [1] (oral WCR 24.01 g/kg), the AUC(0-inf) was found to be 4040 ± 1480 ng·h/mL, the AUC(0-t) came to 3310 ± 579 ng·h/mL, the highest level (Cmax) was 192 ± 8.48 ng/mL and the MRT was determined as 21.9 ± 11.2 h. In data set [1] (oral WCR 24.01 g/kg), the Tmax came to 0.3 ± 0.18 h, the half-life was 14.6 ± 7.56 h, the Cl is on record as 568.93 ± 184.86 mL/h and the Vd is recorded as 10,580.62 ± 2206.75 mL.
As to `CCC/C=C1\OC(=O)c2ccccc21` [Butylidenephthalide, butylidenephthalide], in data set [2] (extracted rat plasma, 24 h in autosampler at 4 °C), the “Post-Preparative Stability RE” value is 6.90%. Further, the “Bench-Top Stability RE” value in data set [2] (rat plasma, room temperature 4 h) came out at 1.88%. The “Freeze-Thaw Stability RE” value in data set [2] (rat plasma, three freeze (−20 °C)-thaw cycles) was −10.99%. The “Long-Term Stability RE” value in data set [2] (rat plasma, −20 °C for 60 days) is 4.03%. In data set [1] (oral RCR 24.01 g/kg), this compound gave an AUC(0-inf) of 782 ± 252 ng·h/mL, an AUC(0-t) of 743 ± 279 ng·h/mL, a Cmax of 288 ± 370 ng/mL and an MRT of 14.1 ± 6.54 h. Further, in data set [1] (oral RCR 24.01 g/kg), the Tmax was determined as 0.25 ± 0.14 h, the half-life is 11.4 ± 5.88 h, the Cl is 36.61 ± 16.33 mL/h and the Vd is given as 633.78 ± 424.90 mL. Moreover, in data set [1] (oral WCR 24.01 g/kg), the AUC(0-inf) is 402 ± 77.1 ng·h/mL, the AUC(0-t) worked out at 384 ± 90.9 ng·h/mL, the Cmax was 52.1 ± 16.6 ng/mL and the MRT was found to be 13.9 ± 3.63 h. In addition, in data set [1] (oral WCR 24.01 g/kg), the Tmax was found to be 0.27 ± 0.14 h, the half-life is 11 ± 3.75 h, the Cl turned out to be 234.35 ± 44.10 mL/h and the Vd is 3802.37 ± 1676.69 mL.
In data set [1] (oral RCR 24.01 g/kg), `CCCCC1OC(=O)C2=C1CCC=C2` (stereo not shown) [Senkyunolide A, senkyunolide A] registered an AUC(0-inf) of 1840 ± 501 ng·h/mL, an AUC(0-t) of 1640 ± 438 ng·h/mL, a Cmax of 653 ± 581 ng/mL and an MRT of 18.8 ± 4.24 h. Also, in data set [1] (oral RCR 24.01 g/kg), the Tmax came to 0.11 ± 0.09 h, the half-life is 13.4 ± 3.56 h, the Cl was determined as 392.87 ± 142.41 mL/h and the Vd is listed as 7378.16 ± 2565.01 mL. Further, in data set [1] (oral WCR 24.01 g/kg), the AUC(0-inf) amounted to 861 ± 267 ng·h/mL, the AUC(0-t) is 804 ± 279 ng·h/mL, the Cmax is 151 ± 84.3 ng/mL and the MRT is 9.86 ± 1.53 h. For the same compound, in data set [1] (oral WCR 24.01 g/kg), the Tmax turned out to be 0.18 ± 0.07 h, the half-life is 6.32 ± 1.72 h and the Vd is listed as 8275.68 ± 5216.70 mL.
In data set [1] (oral RCR 24.01 g/kg), `COc1cc(/C=C/C(=O)O)ccc1O` [Ferulic Acid, ferulic acid] had an area under the curve AUC(0-inf) of 13400 ng·h/mL, an AUC(0-t) of 13100 ng·h/mL, a Cmax of 47700 ng/mL and an MRT of 3.21 ± 1.66 h. Moreover, in data set [1] (oral RCR 24.01 g/kg), the Tmax came to 0.12 ± 0.09 h, the Cl came to 24.08 ± 14.39 mL/h, the Vd is 283.95 ± 234.10 mL and the t1/2 turned out to be 8.57 ± 4.42 h. In data set [1] (oral WCR 24.01 g/kg), this compound gave an AUC(0-inf) of 4620 ± 1290 ng·h/mL, an AUC(0-t) of 4460 ± 1240 ng·h/mL, a Cmax of 9530 ± 6500 ng/mL and an MRT of 4.05 ± 1.07 h. In data set [1] (oral WCR 24.01 g/kg), the Tmax is 0.06 ± 0.03 h, the Cl came out at 178.84 ± 54.46 mL/h, the Vd amounted to 1519.30 ± 1321.97 mL and the t1/2 amounted to 5.33 ± 2.97 h.
